This is an account of results in patent US4395417A, “Antihyperlipidemic compositions” (Research Corporation, priority 1980, dated 1983).

Where two headings read alike, the source gives them in different places.

One experiment has as its target T1, Acetyl-CoA Carboxylase (Mus musculus, UniProt Q5SWU9).
T1 construct: 32,010 dpm/gm wet tissue/30 min; from tissue
Nature of the experiment: In vitro acetyl coenzyme A carboxylase activity (method of Greenspan and Lowenstein). Type of experiment: biochemical. The following applies: Table 2, N = 6, x ± S.D., control 32,010 dpm/gm wet tissue/30 min.

A further experiment has as its target T2, Citrate Lyase (Mus musculus, UniProt Q91V92).
T2 construct: 30.5 mg of citrate hydrolyzed/gm wet tissue/30 min; from tissue
T2 sequence (Q91V92 1-1091): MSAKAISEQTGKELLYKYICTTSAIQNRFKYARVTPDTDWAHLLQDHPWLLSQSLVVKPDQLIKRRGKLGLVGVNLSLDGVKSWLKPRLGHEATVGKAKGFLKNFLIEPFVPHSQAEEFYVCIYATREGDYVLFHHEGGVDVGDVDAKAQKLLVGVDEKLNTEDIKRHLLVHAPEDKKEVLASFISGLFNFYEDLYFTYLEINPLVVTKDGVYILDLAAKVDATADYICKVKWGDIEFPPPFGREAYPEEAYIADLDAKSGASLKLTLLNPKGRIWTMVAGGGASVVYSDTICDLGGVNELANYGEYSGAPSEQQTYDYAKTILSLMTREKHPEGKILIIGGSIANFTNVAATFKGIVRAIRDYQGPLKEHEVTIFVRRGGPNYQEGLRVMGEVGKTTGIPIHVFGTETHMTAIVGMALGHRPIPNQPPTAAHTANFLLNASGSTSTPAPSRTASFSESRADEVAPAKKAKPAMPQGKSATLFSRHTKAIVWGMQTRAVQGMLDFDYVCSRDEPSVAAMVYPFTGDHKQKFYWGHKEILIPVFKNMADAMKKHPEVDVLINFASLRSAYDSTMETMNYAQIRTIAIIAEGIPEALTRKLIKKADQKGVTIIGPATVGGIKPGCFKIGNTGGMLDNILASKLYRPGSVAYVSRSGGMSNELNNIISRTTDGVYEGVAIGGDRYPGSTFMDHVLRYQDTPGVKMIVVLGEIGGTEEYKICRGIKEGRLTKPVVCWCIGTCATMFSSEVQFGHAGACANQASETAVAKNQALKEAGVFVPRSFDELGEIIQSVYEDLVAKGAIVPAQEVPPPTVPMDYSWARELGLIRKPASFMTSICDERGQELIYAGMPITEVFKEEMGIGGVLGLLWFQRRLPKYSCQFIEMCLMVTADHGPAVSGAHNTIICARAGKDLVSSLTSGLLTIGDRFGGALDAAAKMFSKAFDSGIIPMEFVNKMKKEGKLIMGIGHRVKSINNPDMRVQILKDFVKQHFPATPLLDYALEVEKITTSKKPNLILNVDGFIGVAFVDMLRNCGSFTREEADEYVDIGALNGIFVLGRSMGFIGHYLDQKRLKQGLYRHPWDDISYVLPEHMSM
Nature of the experiment: In vitro effect on citrate lyase. In kind it is biochemical. The conditions noted are these: Table 2, N = 6, x ± S.D., control 30.5 mg of citrate hydrolyzed/gm wet tissue/30 min.

A further experiment has as its target T3, Fatty Acid Synthetase (Mus musculus, UniProt P19096).
T3 construct: gm wet tissue/30 min; from tissue
Description: In vitro effect on fatty acid synthetase. In kind it is biochemical. The following applies: Table 2, N = 6, x ± S.D.

In the next experiment the test system is serum triglyceride. Nature of the experiment: Serum triglyceride levels of male mice (Hycel commercial kits). In kind it is in vivo, male CF1 mice. The following applies: Mus musculus, ip, 336 h. The procedure: (§1) For hypolipidemic activity, the compounds were tested at 20 mg/kg/day administered I.P. to male CF1 mice (~30 g). On days 9 and 16 blood was collected by tail-vein bleeding. Serum cholesterol was determined by the Liebermann-Burchard reaction. Serum triglyceride levels were determined using the Hycel commercial kits on a separate group of mice, which were bled on day 14.

Another experiment concerns the target T4, Acetyl-CoA Synthetase (Mus musculus, UniProt Q9QXG4).
T4 construct: gm wet tissue/30 min; from tissue
Nature of the experiment: In vitro acetyl coenzyme A synthetase activity (method of Goodridge). In kind it is biochemical, mice. The following applies: for Acetyl-CoA Synthetase: Table 2, N = 6, x ± S.D., control 28.5 mg acetyl CoA formed/gm wet tissue/30 min.; for in vitro AcCoA synthetase: Table 3, N = 6, control 10.8 mg/g wet tissue.

A further experiment has as its system serum cholesterol. Description: Serum cholesterol of male CF1 mice (Liebermann-Burchard reaction). In kind it is in vivo. The conditions noted are these: Mus musculus, ip. The procedure: as §1
Setting [1] is: Table 1, 20 mg/kg/day I.P., male mice, N = 6, 14th day, control value 137 mg %, read-out: Serum Triglyceride, 14th day.
Where [2] appears, read: 216 h, Table 1, 20 mg/kg/day I.P., male CF1 mice, N = 6, 9th day, control value 118 mg %, read-out: Serum Cholesterol, 9th day.
Setting [3] is: 384 h, Table 1, 20 mg/kg/day I.P., male CF1 mice, N = 6, 16th day, control value 122 mg %, read-out: Serum Cholesterol, 16th day.
Where [4] appears, read: Table 3, mice, N = 6, control 138 mg %, read-out: serum triglycerides.
Where [5] appears, read: 216 h, Table 3, mice, N = 6, 9th day, control 115 mg %, read-out: serum cholesterol, 9th day.
Where [6] appears, read: 384 h, Table 3, mice, N = 6, 16th day, control 118 mg %, read-out: serum cholesterol, 16th day.

T4 sequence (Q9QXG4 whole entry): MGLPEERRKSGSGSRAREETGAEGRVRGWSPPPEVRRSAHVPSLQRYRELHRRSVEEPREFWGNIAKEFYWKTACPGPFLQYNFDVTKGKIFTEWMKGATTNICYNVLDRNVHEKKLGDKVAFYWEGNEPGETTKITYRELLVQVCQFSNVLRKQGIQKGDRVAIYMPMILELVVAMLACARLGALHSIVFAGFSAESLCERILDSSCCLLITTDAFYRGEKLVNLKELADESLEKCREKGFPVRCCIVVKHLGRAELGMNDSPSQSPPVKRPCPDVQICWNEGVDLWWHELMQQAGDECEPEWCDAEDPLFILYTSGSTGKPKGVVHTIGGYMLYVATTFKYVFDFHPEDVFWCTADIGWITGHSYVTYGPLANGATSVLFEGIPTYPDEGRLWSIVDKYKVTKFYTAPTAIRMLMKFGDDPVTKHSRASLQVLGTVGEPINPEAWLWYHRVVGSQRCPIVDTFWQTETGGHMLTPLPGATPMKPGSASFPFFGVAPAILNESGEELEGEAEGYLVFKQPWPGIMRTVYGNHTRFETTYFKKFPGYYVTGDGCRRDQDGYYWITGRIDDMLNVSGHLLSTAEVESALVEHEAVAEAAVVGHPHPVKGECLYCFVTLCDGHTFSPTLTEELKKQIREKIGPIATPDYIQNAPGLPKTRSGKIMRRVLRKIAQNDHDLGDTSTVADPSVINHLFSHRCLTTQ
T3 sequence (P19096 whole entry): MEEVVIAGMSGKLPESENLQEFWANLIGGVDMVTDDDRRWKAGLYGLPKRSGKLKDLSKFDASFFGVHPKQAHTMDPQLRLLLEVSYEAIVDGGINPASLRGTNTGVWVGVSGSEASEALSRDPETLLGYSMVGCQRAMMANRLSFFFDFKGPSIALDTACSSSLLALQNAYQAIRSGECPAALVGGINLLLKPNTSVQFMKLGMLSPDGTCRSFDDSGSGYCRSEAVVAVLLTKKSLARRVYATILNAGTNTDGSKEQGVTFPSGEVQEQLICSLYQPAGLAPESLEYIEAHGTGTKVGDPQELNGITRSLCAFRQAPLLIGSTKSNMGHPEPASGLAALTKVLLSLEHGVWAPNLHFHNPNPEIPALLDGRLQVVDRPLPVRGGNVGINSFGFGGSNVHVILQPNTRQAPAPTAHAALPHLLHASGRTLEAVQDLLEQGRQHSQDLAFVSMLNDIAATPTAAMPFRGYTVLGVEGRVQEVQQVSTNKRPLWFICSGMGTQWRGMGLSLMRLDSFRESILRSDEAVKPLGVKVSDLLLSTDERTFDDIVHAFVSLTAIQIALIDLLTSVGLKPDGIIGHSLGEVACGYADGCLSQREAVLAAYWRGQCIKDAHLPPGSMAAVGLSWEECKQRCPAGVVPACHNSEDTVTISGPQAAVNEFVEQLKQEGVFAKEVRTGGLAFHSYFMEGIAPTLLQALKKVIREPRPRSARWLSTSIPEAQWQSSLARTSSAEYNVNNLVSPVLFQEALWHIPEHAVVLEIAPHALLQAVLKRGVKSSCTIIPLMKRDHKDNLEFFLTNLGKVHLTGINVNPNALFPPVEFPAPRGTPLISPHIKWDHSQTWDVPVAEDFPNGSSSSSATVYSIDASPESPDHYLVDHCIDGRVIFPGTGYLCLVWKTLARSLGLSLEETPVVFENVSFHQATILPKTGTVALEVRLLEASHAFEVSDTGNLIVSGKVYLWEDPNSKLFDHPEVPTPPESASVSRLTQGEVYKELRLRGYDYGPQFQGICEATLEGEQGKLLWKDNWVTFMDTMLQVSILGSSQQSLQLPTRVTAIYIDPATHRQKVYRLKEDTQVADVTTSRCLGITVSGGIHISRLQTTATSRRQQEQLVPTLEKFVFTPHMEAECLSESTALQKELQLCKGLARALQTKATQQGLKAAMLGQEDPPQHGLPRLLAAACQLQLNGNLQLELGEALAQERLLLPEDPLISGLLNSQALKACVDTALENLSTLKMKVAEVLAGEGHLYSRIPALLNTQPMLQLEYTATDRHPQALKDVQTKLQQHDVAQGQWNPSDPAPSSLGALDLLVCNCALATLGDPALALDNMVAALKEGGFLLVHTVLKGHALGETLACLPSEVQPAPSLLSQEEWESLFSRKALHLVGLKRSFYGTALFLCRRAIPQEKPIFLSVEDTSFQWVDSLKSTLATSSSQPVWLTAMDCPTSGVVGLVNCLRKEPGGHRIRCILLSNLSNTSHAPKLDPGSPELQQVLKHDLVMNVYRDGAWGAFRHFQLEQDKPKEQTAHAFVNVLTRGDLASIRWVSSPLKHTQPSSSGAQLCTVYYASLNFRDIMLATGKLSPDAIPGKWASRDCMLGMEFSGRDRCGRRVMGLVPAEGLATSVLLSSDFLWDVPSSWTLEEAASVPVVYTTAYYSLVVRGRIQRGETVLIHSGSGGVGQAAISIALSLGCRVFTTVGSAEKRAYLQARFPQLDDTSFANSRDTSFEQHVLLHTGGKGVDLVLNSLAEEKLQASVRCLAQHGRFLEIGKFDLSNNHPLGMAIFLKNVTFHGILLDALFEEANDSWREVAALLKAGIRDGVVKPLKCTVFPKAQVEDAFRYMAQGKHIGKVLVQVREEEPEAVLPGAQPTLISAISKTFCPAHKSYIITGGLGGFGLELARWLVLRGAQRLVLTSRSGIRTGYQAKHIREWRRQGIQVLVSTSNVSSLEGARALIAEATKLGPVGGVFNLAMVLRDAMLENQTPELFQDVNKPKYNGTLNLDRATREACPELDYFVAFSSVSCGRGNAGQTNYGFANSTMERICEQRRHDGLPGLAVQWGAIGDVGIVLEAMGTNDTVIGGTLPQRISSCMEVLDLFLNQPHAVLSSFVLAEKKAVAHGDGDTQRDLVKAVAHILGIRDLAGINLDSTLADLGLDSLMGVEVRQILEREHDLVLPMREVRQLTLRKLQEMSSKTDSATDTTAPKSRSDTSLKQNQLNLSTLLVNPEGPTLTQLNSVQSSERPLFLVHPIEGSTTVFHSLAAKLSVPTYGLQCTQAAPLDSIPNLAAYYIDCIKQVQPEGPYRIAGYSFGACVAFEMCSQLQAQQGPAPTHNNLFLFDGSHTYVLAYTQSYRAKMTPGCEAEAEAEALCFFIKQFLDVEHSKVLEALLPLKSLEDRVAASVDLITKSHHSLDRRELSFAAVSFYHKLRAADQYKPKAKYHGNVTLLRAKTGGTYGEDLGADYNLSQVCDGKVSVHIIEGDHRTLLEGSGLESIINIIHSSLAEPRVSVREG

For the compound `O=C1NC(=O)c2cccc3cccc1c23` [1,8-Naphthalimide], the “Acetyl-CoA Carboxylase” value on Acetyl-CoA Carboxylase came to 106 ± 6 % Control. For the same compound, at Citrate Lyase, the “Citrate Lyase” value amounted to 66 ± 6 % Control. The “Fatty Acid Synthetase” value on Fatty Acid Synthetase amounted to 86 ± 8 % Control. Further, the results for the response vs control in vivo at 20 mg/kg/day in the experiment with serum triglyceride (setting [1]), with serum cholesterol (setting [2]) and in the experiment on serum cholesterol (setting [3]) were 87 ± 12%, 81 ± 6% and 61 ± 7%, respectively. For the same compound, the “Acetyl-CoA Synthetase” value on Acetyl-CoA Synthetase is listed as 63 ± 9 % Control.
Consider `CC(=O)CCN1C(=O)c2cccc3cccc(c23)C1=O` [1-N--(1,8-Naphthalimido)butan-3-one], for which the “Acetyl-CoA Carboxylase” value at Acetyl-CoA Carboxylase is 59 ± 8 % Control. Also, the “Citrate Lyase” value on Citrate Lyase was 60 ± 5 % Control. On Fatty Acid Synthetase, the “Fatty Acid Synthetase” value was 103 ± 4 % Control. The response vs control in vivo at 20 mg/kg/day in the experiment on serum triglyceride (setting [1]) came to 54 ± 15%; with serum cholesterol (setting [2]), 94 ± 12%; in the experiment with serum cholesterol (setting [3]), 86 ± 9%. In addition, the “Acetyl-CoA Synthetase” value on Acetyl-CoA Synthetase turned out to be 88 ± 5 % Control.
Turning to `CC(=O)CCCCCN1C(=O)c2ccccc2C1=O` [1-N--phthalimidoheptan-6-one], the results for the response vs control in vivo at 20 mg/kg/day in the experiment on serum triglyceride (setting [4]), with serum cholesterol (setting [5]) and in the experiment on serum cholesterol (setting [6]) were 88 ± 5%, 71 ± 6% and 75 ± 12%, respectively. Further, the “in vitro AcCoA synthetase” value on Acetyl-CoA Synthetase is 85 ± 3 % Control.
Take `CC(=O)CCCCN1C(=O)c2ccccc2C1=O` [1-N--phthalimidohexan-5-one]: the results for the response vs control in vivo at 20 mg/kg/day in the experiment on serum triglyceride (setting [4]), in the experiment with serum cholesterol (setting [5]) and with serum cholesterol (setting [6]) were 77 ± 5%, 65 ± 9% and 65 ± 7%, respectively. Also, the “in vitro AcCoA synthetase” value at Acetyl-CoA Synthetase is 68 ± 6 % Control.
Turning to `CC(=O)CCCN1C(=O)c2ccccc2C1=O` [1-N--phthalimidopentan-4-one], the response vs control in vivo at 20 mg/kg/day is 59 ± 13% in the experiment with serum triglyceride (setting [4]), 71 ± 6% with serum cholesterol (setting [5]) and 63 ± 5% in the experiment on serum cholesterol (setting [6]). On Acetyl-CoA Synthetase, the “in vitro AcCoA synthetase” value came to 62 ± 3 % Control.
Consider `O=C(O)CN1C(=O)c2ccccc2C1=O` [2-N--phthalimidoacetic acid], for which the figures for the response vs control in vivo at 20 mg/kg/day with serum triglyceride (setting [4]), in the experiment on serum cholesterol (setting [5]) and in the experiment with serum cholesterol (setting [6]) were 72 ± 9%, 76 ± 7% and 68 ± 7%, respectively. Besides, the “in vitro AcCoA synthetase” value on Acetyl-CoA Synthetase is 72 ± 12 % Control.
For `O=C(O)CCCN1C(=O)c2ccccc2C1=O` [4-N--phthalimidobutyric acid], the response vs control in vivo at 20 mg/kg/day is 59 ± 14% in the experiment with serum triglyceride (setting [4]), 80 ± 7% in the experiment on serum cholesterol (setting [5]) and 68 ± 6% in the experiment with serum cholesterol (setting [6]). Moreover, the “in vitro AcCoA synthetase” value on Acetyl-CoA Synthetase turned out to be 64 ± 12 % Control.
On the same counts, the results for `O=C(O)CCCCN1C(=O)c2ccccc2C1=O` [5-N--phthalimidovaleric] are 54 ± 5%, 83 ± 9%, 77 ± 4% and 76 ± 8 % Control.
As to `O=C(O)CCCCCN1C(=O)c2ccccc2C1=O` [6-N--phthalimidocaproic acid], the response vs control in vivo at 20 mg/kg/day was 51 ± 12% in the experiment on serum triglyceride (setting [4]), 81 ± 6% in the experiment on serum cholesterol (setting [5]) and 67 ± 3% in the experiment with serum cholesterol (setting [6]). In addition, at Acetyl-CoA Synthetase, the “in vitro AcCoA synthetase” value stood at 59 ± 9 % Control.
The like results for `CCN1C(=O)c2ccccc2C1=O` [N--ethylphthalimide] were, in that order, 87 ± 5%, 83 ± 4%, 76 ± 2% and 82 ± 5 % Control.
As for `CN1C(=O)c2ccccc2C1=O` [N--methylphthalimide], the response vs control in vivo at 20 mg/kg/day in the experiment on serum triglyceride (setting [4]) was 68 ± 8%; in the experiment on serum cholesterol (setting [5]), 74 ± 4%; in the experiment with serum cholesterol (setting [6]), 74 ± 8%. The “in vitro AcCoA synthetase” value on Acetyl-CoA Synthetase is listed as 66 ± 12 % Control.
As to `CCCCCCCN1C(=O)c2ccccc2C1=O` [N--n-heptylphthalimide], the results for the response vs control in vivo at 20 mg/kg/day with serum triglyceride (setting [4]), in the experiment with serum cholesterol (setting [5]) and in the experiment on serum cholesterol (setting [6]) were 84 ± 6%, 99 ± 7% and 72 ± 4%, respectively. Moreover, the “in vitro AcCoA synthetase” value at Acetyl-CoA Synthetase is given as 71 ± 5 % Control.
Turning to `CCCCCCN1C(=O)c2ccccc2C1=O` [N--n-hexylphthalimide], the results for the response vs control in vivo at 20 mg/kg/day with serum triglyceride (setting [4]), in the experiment on serum cholesterol (setting [5]) and in the experiment with serum cholesterol (setting [6]) were 84 ± 8%, 96 ± 5% and 66 ± 4%, respectively. In addition, the “in vitro AcCoA synthetase” value at Acetyl-CoA Synthetase came out at 71 ± 12 % Control.
On to `CCCCCCCCN1C(=O)c2ccccc2C1=O` [N--n-octylphthalimide], for which the response vs control in vivo at 20 mg/kg/day was determined as 77 ± 4% in the experiment on serum triglyceride (setting [4]), 101 ± 7% in the experiment on serum cholesterol (setting [5]) and 82 ± 3% in the experiment on serum cholesterol (setting [6]). Also, the “in vitro AcCoA synthetase” value on Acetyl-CoA Synthetase was found to be 76 ± 7 % Control.
`CCCCCN1C(=O)c2ccccc2C1=O` [N--n-pentylphthalimide]: the response vs control in vivo at 20 mg/kg/day in the experiment with serum triglyceride (setting [4]) was 75 ± 16%; with serum cholesterol (setting [5]), 76 ± 5%; in the experiment on serum cholesterol (setting [6]), 58 ± 3%. Moreover, the “in vitro AcCoA synthetase” value at Acetyl-CoA Synthetase was 68 ± 6 % Control.
In the case of `CCCN1C(=O)c2ccccc2C1=O` [N--n-propylphthalimide], the values for the response vs control in vivo at 20 mg/kg/day in the experiment on serum triglyceride (setting [4]), in the experiment on serum cholesterol (setting [5]) and in the experiment with serum cholesterol (setting [6]) were 81 ± 9%, 96 ± 4% and 74 ± 5%, respectively. Also, the “in vitro AcCoA synthetase” value on Acetyl-CoA Synthetase is reported as 67 ± 3 % Control.
Regarding `CC(=O)OCCCCN1C(=O)c2ccccc2C1=O` [N--phthalimidobutan-1-ol acetate], the figures for the response vs control in vivo at 20 mg/kg/day in the experiment on serum triglyceride (setting [4]), in the experiment on serum cholesterol (setting [5]) and with serum cholesterol (setting [6]) were 88 ± 7%, 93 ± 9% and 66 ± 5%, respectively. For the same compound, on Acetyl-CoA Synthetase, the “in vitro AcCoA synthetase” value is recorded as 83 ± 2 % Control.
For the compound `CC(=O)OCCN1C(=O)c2ccccc2C1=O` [N--phthalimidoethyl acetate], the response vs control in vivo at 20 mg/kg/day in the experiment with serum triglyceride (setting [4]) was 82 ± 7%; in the experiment with serum cholesterol (setting [5]), 93 ± 13%; in the experiment with serum cholesterol (setting [6]) it was 95 ± 1%. For the same compound, the “in vitro AcCoA synthetase” value at Acetyl-CoA Synthetase worked out at 81 ± 6 % Control.
Turning to `CC(=O)OCN1C(=O)c2ccccc2C1=O` [N--phthalimidomethyl acetate], the response vs control in vivo at 20 mg/kg/day is 57 ± 25% in the experiment with serum triglyceride (setting [4]), 61 ± 9% in the experiment on serum cholesterol (setting [5]) and 62 ± 4% with serum cholesterol (setting [6]). Further, the “in vitro AcCoA synthetase” value on Acetyl-CoA Synthetase was 62 ± 10 % Control.
`CC(=O)OCCCN1C(=O)c2ccccc2C1=O` [N--phthalimidopropan-1-ol acetate]: the response vs control in vivo at 20 mg/kg/day in the experiment on serum triglyceride (setting [4]) stood at 89 ± 9%; in the experiment on serum cholesterol (setting [5]) it was 102 ± 4%; in the experiment on serum cholesterol (setting [6]), 66 ± 2%. Also, the “in vitro AcCoA synthetase” value on Acetyl-CoA Synthetase amounted to 84 ± 2 % Control.
In the case of `O=C1NC(=O)c2ccccc21.[K]` [potassium phthalimide], the results for the response vs control in vivo at 20 mg/kg/day in the experiment with serum triglyceride (setting [4]), in the experiment on serum cholesterol (setting [5]) and in the experiment with serum cholesterol (setting [6]) were 88 ± 4%, 63 ± 6% and 78 ± 3%, respectively. The “in vitro AcCoA synthetase” value at Acetyl-CoA Synthetase stood at 78 ± 6 % Control.
